Experimental data from ChEMBL document CHEMBL3792365, “Dioxol and dihydrodioxin analogs of 2- and 3-phenylacetonitriles as potent anti-cancer agents with nanomolar activity against a variety of human cancer cells” (2016).

Assays:
Format in all cases: functional
[1] = Growth inhibition of human RPMI8226 cells at 10 uM after 48 hrs by sulforhodamine B assay; conditions: RPMI-8226, 48 h, values are per cent of control
[2] = Growth inhibition of human RXF393 cells at 10 uM after 48 hrs by sulforhodamine B assay; conditions: RXF 393, 48 h, values are per cent of control
[3] = Growth inhibition of human HCT15 cells at 10 uM after 48 hrs by sulforhodamine B assay; conditions: HCT-15, 48 h, values are per cent of control
786-0 = assay: Growth inhibition of human 786-0 cells at 10 uM after 48 hrs by sulforhodamine B assay; conditions: 786-0, 48 h, values are per cent of control
[4] = Growth inhibition of human UACC257 cells at 10 uM after 48 hrs by sulforhodamine B assay; conditions: UACC-257, 48 h, values are per cent of control
MCF7 = assay: Growth inhibition of human MCF7 cells at 10 uM after 48 hrs by sulforhodamine B assay; conditions: MCF7, 48 h, values are per cent of control
[5] = Growth inhibition of human PC3 cells at 10 uM after 48 hrs by sulforhodamine B assay; conditions: PC-3, 48 h, values are per cent of control
[6] = Growth inhibition of human OVCAR8 cells at 10 uM after 48 hrs by sulforhodamine B assay; conditions: OVCAR-8, 48 h, values are per cent of control
Malme-3M = assay: Growth inhibition of human MALME-3M cells at 10 uM after 48 hrs by sulforhodamine B assay; conditions: values are per cent of control
SK-MEL-5 = assay: Growth inhibition of human SK-MEL-5 cells at 10 uM after 48 hrs by sulforhodamine B assay; conditions: SK-MEL-5, 48 h, values are per cent of control
[7] = Growth inhibition of human NCI-ADR-RES cells at 10 uM after 48 hrs by sulforhodamine B assay; conditions: values are per cent of control
[8] = Growth inhibition of human MOLT4 cells at 10 uM after 48 hrs by sulforhodamine B assay; conditions: MOLT-4, 48 h, values are per cent of control
SR = assay: Growth inhibition of human SR cells at 10 uM after 48 hrs by sulforhodamine B assay; conditions: values are per cent of control
ACHN = assay: Growth inhibition of human ACHN cells at 10 uM after 48 hrs by sulforhodamine B assay; conditions: values are per cent of control
[9] = Growth inhibition of human SKOV3 cells at 10 uM after 48 hrs by sulforhodamine B assay; conditions: SK-OV-3, 48 h, values are per cent of control
CCRF-CEM = assay: Growth inhibition of human CCRF-CEM cells at 10 uM after 48 hrs by sulforhodamine B assay; conditions: values are per cent of control
[10] = Growth inhibition of human HOP92 cells at 10 uM after 48 hrs by sulforhodamine B assay; conditions: HOP-92, 48 h, values are per cent of control
[11] = Growth inhibition of human OVCAR3 cells at 10 uM after 48 hrs by sulforhodamine B assay; conditions: OVCAR-3, 48 h, values are per cent of control
[12] = Growth inhibition of human HL-60(TB) cells at 10 uM after 48 hrs by sulforhodamine B assay; conditions: HL-60, 48 h, values are per cent of control

SMILES | growth, % of control at 10 µM [1] | growth, % of control at 10 µM [2] | growth, % of control at 10 µM [3] | growth, % of control at 10 µM (786-0) | growth, % of control at 10 µM [4] | growth, % of control at 10 µM (MCF7) | growth, % of control at 10 µM [5] | growth, % of control at 10 µM [6] | growth, % of control at 10 µM (Malme-3M) | growth, % of control at 10 µM (SK-MEL-5) | growth, % of control at 10 µM [7] | growth, % of control at 10 µM [8] | growth, % of control at 10 µM (SR) | growth, % of control at 10 µM (ACHN) | growth, % of control at 10 µM [9] | growth, % of control at 10 µM (CCRF-CEM) | growth, % of control at 10 µM [10] | growth, % of control at 10 µM [11] | growth, % of control at 10 µM [12]
N#C/C(=C\c1cc(Br)cc(Br)c1)c1ccc2c(c1)OCO2 | 76.6% | 95.5% | 92.6% | 98.2% | 100% | 82.3% | 89.2% | 108% | 84% | 95.4% | 94.9% | 66.6% | 79% | 96.1% | 94.4% | 75.4% | 113% | 103% | 62.9%
N#C/C(=C\c1cc(F)cc(F)c1)c1ccc2c(c1)OCO2 | 94.7% | 98.5% | 99.4% | 94.6% | 104% | 88.4% | 101% | 96.7% | 116% | 105% | 106% | 83.1% | 84.6% | 109% | 102% | 97.7% | 125% | 109% | 108%
COc1ccc(/C=C(\C#N)c2ccc3c(c2)OCO3)cn1 | 73.2% | 86.5% | 78% | 107% | 89.4% | 83.5% | 77.9% | 90.1% | 90.6% | 84.1% | 86% | 71.5% | 50.1% | 93.4% | 83.1% | 87.7% | 64.9% | 100% | 70.8%
